Test results published in patent US12180207B2 (ARRAY BIOPHARMA INC., priority 2018, dated 2024).

What was measured:
[1] = target: FGFR3 (SEQ ID NO: 5, amino acids 449-759) (Homo sapiens (Human), UniProt P22607); test: LC/MS FGFR3 kobs assay (covalent protein modification); type: binding; details: 500 nM FGFR3, 3 μM compound
Method in brief: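 Covalent modification of FGFR1 (aa 458-765) or FGFR3 (aa 449-759) followed over time; reactions quenched with 0.4% formic acid and analysed by Q-TOF LC/MS after deconvolution. Percent unmodified protein, normalized to DMSO controls, fit to exponential decay to give kobs; averaged where repeated.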

[2] = target: dephosphorylated FGFR1 (SEQ ID NO: 1, amino acids 458 to 765) (Homo sapiens (Human), UniProt P11362); test: FGFR enzyme binding assay (HTRF tracer displacement), FGFR1; details: 5 nM dephosphorylated FGFR1, average of multiple determinations if made
dephosphorylated FGFR1 (SEQ ID NO: 1, amino acids 458 to 765), sequence (P11362 458-765): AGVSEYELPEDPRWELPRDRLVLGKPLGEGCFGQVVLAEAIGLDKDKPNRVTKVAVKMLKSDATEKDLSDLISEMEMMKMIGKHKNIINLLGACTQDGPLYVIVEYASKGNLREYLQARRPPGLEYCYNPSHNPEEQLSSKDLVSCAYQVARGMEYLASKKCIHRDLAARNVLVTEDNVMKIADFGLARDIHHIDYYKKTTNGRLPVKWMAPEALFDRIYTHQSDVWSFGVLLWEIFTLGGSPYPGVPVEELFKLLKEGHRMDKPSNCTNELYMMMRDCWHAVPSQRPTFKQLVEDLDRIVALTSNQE
Method in brief: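 Compounds were tested for displacement of a tracer from human FGFR kinase in a time-resolved FRET binding format. After 60 minutes at 22° C, signal was read at two wavelengths and converted to percent of control, normalised between untreated wells and 1 μM reference inhibitor.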

[3] = target: HEK-293 cells transfected with dox-inducible human wild type FGFR1 (Homo sapiens (Human), UniProt P11362); test: FGFR1 pERK cell assay; type: cell-based; details: HEK-293 dox-inducible FGFR1, 1 hour compound, 100 ng/ml FGF-acidic; maximum concentration 5 μM
HEK-293 cells transfected with dox-inducible human wild type FGFR1, sequence (P11362 22-822): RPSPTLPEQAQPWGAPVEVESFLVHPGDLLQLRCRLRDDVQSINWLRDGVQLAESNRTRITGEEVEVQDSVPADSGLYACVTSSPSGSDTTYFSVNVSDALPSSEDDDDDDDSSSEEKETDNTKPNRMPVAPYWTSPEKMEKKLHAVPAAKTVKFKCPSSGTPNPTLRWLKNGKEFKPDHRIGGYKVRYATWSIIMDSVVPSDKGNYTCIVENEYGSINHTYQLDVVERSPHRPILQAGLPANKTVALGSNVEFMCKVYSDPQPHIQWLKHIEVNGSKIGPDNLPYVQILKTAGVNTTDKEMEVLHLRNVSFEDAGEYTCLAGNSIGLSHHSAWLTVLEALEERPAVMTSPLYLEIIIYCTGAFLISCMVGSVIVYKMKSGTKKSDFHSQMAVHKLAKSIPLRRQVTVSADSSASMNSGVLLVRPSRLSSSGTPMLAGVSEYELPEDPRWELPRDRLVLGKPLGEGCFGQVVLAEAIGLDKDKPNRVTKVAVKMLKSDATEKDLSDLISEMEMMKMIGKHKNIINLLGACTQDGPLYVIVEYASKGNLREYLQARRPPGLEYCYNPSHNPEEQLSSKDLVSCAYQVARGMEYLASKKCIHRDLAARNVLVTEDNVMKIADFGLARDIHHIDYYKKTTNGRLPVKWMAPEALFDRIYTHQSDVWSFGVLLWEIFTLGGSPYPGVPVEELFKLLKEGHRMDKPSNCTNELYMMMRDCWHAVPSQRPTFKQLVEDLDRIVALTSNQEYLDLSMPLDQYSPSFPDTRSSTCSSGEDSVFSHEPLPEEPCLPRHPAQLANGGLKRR
Method in brief: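 In HEK-293 cells with dox-induced human wild-type FGFR1, compounds (1:3 dilutions, top 5 μM final) were applied 1 h at 37°C before 5 min stimulation with 100 ng/ml FGF-acidic. Phospho-ERK1/2 measured by MSD sandwich immunoassay; IC50 from 4-parameter fit of POC versus vehicle and control compound.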

[4] = target: FGFR1 (SEQ ID NO: 1, amino acids 458-765) (Homo sapiens (Human), UniProt P11362); test: LC/MS FGFR1 kobs assay (covalent protein modification); type: binding; details: 500 nM FGFR1, 3 μM compound
FGFR1 (SEQ ID NO: 1, amino acids 458-765), sequence (P11362 458-765): as the sequence (P11362 458-765) above
Method in brief: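 Covalent labeling of FGFR1 kinase domain (aa 458-765) tracked over time by intact-protein LC/MS after formic acid quench. kobs derived by fitting DMSO-normalized percent unmodified FGFR1 to an exponential decay model.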

[5] = target: recombinant human FGFR3 (amino acids R397-T806) (Homo sapiens (Human), UniProt P22607); test: FGFR3 enzyme activity assay (LanthaScreen TR-FRET); type: biochemical; details: 25 μM ATP, 10 min incubation at 22° C., average of multiple determinations if made, read-out: FGFR3 Enz FRET IC50
recombinant human FGFR3 (amino acids R397-T806), sequence (P22607 397-806): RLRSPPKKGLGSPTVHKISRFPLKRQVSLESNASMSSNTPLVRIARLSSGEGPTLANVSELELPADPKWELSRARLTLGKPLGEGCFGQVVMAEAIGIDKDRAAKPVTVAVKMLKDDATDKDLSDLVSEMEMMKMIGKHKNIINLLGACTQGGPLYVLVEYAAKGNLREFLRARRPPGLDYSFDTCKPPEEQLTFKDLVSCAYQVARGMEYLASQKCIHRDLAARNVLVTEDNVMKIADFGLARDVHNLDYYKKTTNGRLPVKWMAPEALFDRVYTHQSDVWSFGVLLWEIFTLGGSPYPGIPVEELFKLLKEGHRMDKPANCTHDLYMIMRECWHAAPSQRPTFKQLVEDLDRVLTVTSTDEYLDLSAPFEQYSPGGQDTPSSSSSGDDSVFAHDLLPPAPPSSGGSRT
Method in brief: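 GST-HIS6-tagged human FGFR3 (R397-T806) was reacted with 100 nM Alexa Fluor 647-Poly-GT substrate and 25 μM ATP plus compound in HEPES/MgCl2/Triton buffer, pH 7.5, 2% DMSO, for 10 min at 22 °C.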

FGFR3 (SEQ ID NO: 5, amino acids 449-759), sequence (P22607 449-759): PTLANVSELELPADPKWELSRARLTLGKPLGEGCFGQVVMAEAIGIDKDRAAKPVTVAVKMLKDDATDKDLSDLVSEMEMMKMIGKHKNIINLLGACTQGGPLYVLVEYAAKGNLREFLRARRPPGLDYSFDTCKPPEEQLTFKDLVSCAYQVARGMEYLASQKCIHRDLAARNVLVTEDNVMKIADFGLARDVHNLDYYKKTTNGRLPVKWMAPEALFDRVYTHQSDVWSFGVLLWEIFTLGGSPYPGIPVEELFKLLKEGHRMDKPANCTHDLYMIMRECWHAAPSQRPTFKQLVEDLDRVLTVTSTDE

Structure (SMILES)	FGFR3 Enz kobs [1] [min⁻¹]	IC50 [2] [nM]	IC50 [3] [nM]	FGFR1 Enz kobs [4] [min⁻¹]	IC50 [5] [nM]
C=CC(=O)N1CC(C(=O)N2CC3(C2)CN(c2ccc(-c4cc(OC)c5c(C#N)cnn5c4)cn2)C3)C1 [Example 104, 6-(6-(6-(1-acryloylazetidine-3-carbonyl)-2,6-diazaspiro[3.3]heptan-2-yl)pyridin-3-yl)-4-methoxypyrazolo[1,5-a]pyridine-3-carbonitrile]	0.03006	72	1110	0.00386	20
C=CC(=O)N1CC(C(=O)N2CC3CC(C2)N3c2ccc(-c3cc(OC)c4c(C#N)cnn4c3)cn2)C1 [Example 105, 6-(6-(3-(1-acryloylazetidine-3-carbonyl)-3,6-diazabicyclo[3.1.1]heptan-6-yl)pyridin-3-yl)-4-methoxypyrazolo[1,5-a]pyridine-3-carbonitrile]	0.00147	435	3960	0.00042	125
C=CC(=O)N1CC(C(=O)N2C[C@@H]3C[C@H]2CN3c2ccc(-c3cc(OC)c4c(C#N)cnn4c3)cn2)C1 [Example 106, 6-(6-((1S,4S)-5-(1-acryloylazetidine-3-carbonyl)-2,5-diazabicyclo[2.2.1]heptan-2-yl)pyridin-3-yl)-4-methoxypyrazolo[1,5-a]pyridine-3-carbonitrile]	0.01259	62	955	0.00246	25
C=CC(=O)N1CC(C(=O)N2C[C@H]3C[C@@H]2CN3c2ccc(-c3cc(OC)c4c(C#N)cnn4c3)cn2)C1 [Example 107, 6-(6-((1R,4R)-5-(1-acryloylazetidine-3-carbonyl)-2,5-diazabicyclo[2.2.1]heptan-2-yl)pyridin-3-yl)-4-methoxypyrazolo[1,5-a]pyridine-3-carbonitrile]	0.01688	108	1350	0.00291	27
C=CC(=O)N1CC(CN2C[C@H]3C[C@@H]2CN3c2ccc(-c3cc(OC)c4c(C#N)cnn4c3)cn2)C1 [Example 108, 6-(6-((1R,4R)-5-((1-acryloylazetidin-3-yl)methyl)-2,5-diazabicyclo[2.2.1]heptan-2-yl)pyridin-3-yl)-4-methoxypyrazolo[1,5-a]pyridine-3-carbonitrile]	0.01344	55	116	0.00291	10
C=CC(=O)N1CC(C(=O)N2CCN(c3ccc(-c4cc(OC)c5c(C#N)cnn5c4)cn3)CC2)C1 [Example 111, 6-(6-(4-(1-acryloylazetidine-3-carbonyl)piperazin-1-yl)pyridin-3-yl)-4-methoxypyrazolo[1,5-a]pyridine-3-carbonitrile]	0.04009	144	288	0.00263	3
C=CC(=O)N1CC(F)(C(=O)N2CCN(c3ccc(-c4cc(OC)c5c(C#N)cnn5c4)cn3)CC2)C1 [Example 112, 6-(6-(4-(1-acryloyl-3-fluoroazetidine-3-carbonyl)piperazin-1-yl)pyridin-3-yl)-4-methoxypyrazolo[1,5-a]pyridine-3-carbonitrile]	0.1108	82	122	0.00852	20
C=CC(=O)N1CC(C(=O)N2CCN(c3ncc(-c4cc(OC)c5c(C#N)cnn5c4)cc3C)CC2)C1 [Example 113, 6-(6-(4-(1-acryloylazetidine-3-carbonyl)piperazin-1-yl)-5-methylpyridin-3-yl)-4-methoxypyrazolo[1,5-a]pyridine-3-carbonitrile]	0.02175	388	1570	0.00304	105
C=CC(=O)N1CC(F)(C(=O)N2CCN(c3cc(C)c(-c4cc(OC)c5c(C#N)cnn5c4)cn3)CC2)C1 [Example 114, 6-(6-(4-(1-acryloyl-3-fluoroazetidine-3-carbonyl)piperazin-1-yl)-4-methylpyridin-3-yl)-4-methoxypyrazolo[1,5-a]pyridine-3-carbonitrile]	0.03264	850	1310	0.00369	258
C=CC(=O)N1CC(C(=O)N2CCN(c3ccc(-c4cc(OC)c5c(C#N)cnn5c4)nn3)CC2)C1 [Example 115, 6-(6-(4-(1-acryloylazetidine-3-carbonyl)piperazin-1-yl)pyridazin-3-yl)-4-methoxypyrazolo[1,5-a]pyridine-3-carbonitrile]	0.01937	90	≥ 5000	0.0016	18
C=CC(=O)N1CC(C(=O)N2CCN(c3cnc(-c4cc(OC)c5c(C#N)cnn5c4)cn3)CC2)C1 [Example 116, 6-(5-(4-(1-acryloylazetidine-3-carbonyl)piperazin-1-yl)pyrazin-2-yl)-4-methoxypyrazolo[1,5-a]pyridine-3-carbonitrile]	0.02585	141	1230	0.00277	27
C=CC(=O)N1CC(OC)(C(=O)N2CCC(n3ncc(-c4cc(OC)c5c(Cl)cnn5c4)c3C)CC2)C1 [Example 117, 1-(3-(4-(4-(3-chloro-4-methoxypyrazolo[1,5-a]pyridin-6-yl)-5-methyl-1H-pyrazol-1-yl)piperidine-1-carbonyl)-3-methoxyazetidin-1-yl)prop-2-en-1-one]	0.03885	814	1200	0.00318	43
C=CC(=O)N1CC(CN2CCC(n3ncc(-c4cc(OC)c5c(Cl)cnn5c4)c3C)CC2)C1 [Example 118, 1-(3-((4-(4-(3-chloro-4-methoxypyrazolo[1,5-a]pyridin-6-yl)-5-methyl-1H-pyrazol-1-yl)piperidin-1-yl)methyl)azetidin-1-yl)prop-2-en-1-one]	0.02502	455	674	0.00303	41
C=CC(=O)N1CC(CN2CCC(n3ncc(-c4cc(OC)c5c(Cl)cnn5c4)c3C)CC2)(OC)C1 [Example 119, 1-(3-((4-(4-(3-chloro-4-methoxypyrazolo[1,5-a]pyridin-6-yl)-5-methyl-1H-pyrazol-1-yl)piperidin-1-yl)methyl)-3-methoxyazetidin-1-yl)prop-2-en-1-one]	0.04536	565	591	0.00359	39
C=CC(=O)N1CC(CN2CCC(n3ncc(-c4cc(OC)c5c(Cl)cnn5c4)c3C)CC2)C1(C)C (stereo not shown) [Example 120, 1-(3-((4-(4-(3-chloro-4-methoxypyrazolo[1,5-a]pyridin-6-yl)-5-methyl-1H-pyrazol-1-yl)piperidin-1-yl)methyl)-2,2-dimethylazetidin-1-yl)prop-2-en-1-one]	0.00758	400	523	0.00068	72
C=CC(=O)N1CC(F)(C(=O)N2CCC(n3cc(-c4cc(OC)c5c(Cl)cnn5c4)cn3)CC2)C1 [Example 121, 1-(3-(4-(4-(3-chloro-4-methoxypyrazolo[1,5-a]pyridin-6-yl)-1H-pyrazol-1-yl)piperidine-1-carbonyl)-3-fluoroazetidin-1-yl)prop-2-en-1-one]	0.06393	114	169	0.00369	9
C=CC(=O)N1CC(C(=O)N2CCC(n3cc(-c4cc(OC)c5c(Cl)cnn5c4)cn3)CC2)C1 [Example 122, 1-(3-(4-(4-(3-chloro-4-methoxypyrazolo[1,5-a]pyridin-6-yl)-1H-pyrazol-1-yl)piperidine-1-carbonyl)azetidin-1-yl)prop-2-en-1-one]	0.01396	120	492	0.00127	9
